Data: PMC9945734 (BMC Medicine, 2023)
Values joined by “and” are separate entries in the source; they are usually repeats but may differ in a detail not shown here. Equal values may be shown once.

System: PC-3-KQ and PC-3-KR cells
Experiment: RNA-sequencing and differential gene expression
Format: cell-based, human
Parameters: CEP19 tpm_KQ_NTZ / CCNA1 tpm_KQ_NTZ / BTN3A3 tpm_KQ_NTZ / CAPSL tpm_KQ_NTZ / CELF3 tpm_KQ_NTZ / C5orf63 tpm_KQ_NTZ / tpm MSMP / tpm MYH7B / tpm CACNG8 / CNTNAP3B tpm_KQ_NTZ / IL21R tpm_KQ_NTZ / CYP8B1 tpm_KQ_NTZ / C2orf78 tpm_KQ_NTZ / CALB1 tpm_KQ_NTZ / COL4A3 tpm_KQ_NTZ / CFB tpm_KQ_NTZ / PFKFB1 tpm_KQ_NTZ / BTBD11 tpm_KQ_NTZ: scale not given here
Details: PC-3-KQ cells with NTZ, RNA-Seq, listed as NTZ

In the case of CC(=O)Oc1ccccc1C(=O)Nc1ncc([N+](=O)[O-])s1 [Nitazoxanide], the “NT5E tpm_KQ_NTZ” value (replicates 1-3) is reported as -0.3117 and -0.2802 and -0.3345, the “NTF4 tpm_KQ_NTZ” value (replicates 1-3) is reported as -0.8704 and -0.4013 and -0.4312 and the “PADI3 tpm_KQ_NTZ” value (replicates 1-3) is reported as -0.6957 and -0.9817 and -0.9686. For the same molecule, the “PCDH18 tpm_KQ_NTZ” value (replicates 1-3) was -1.061 and -0.1951 and -0.6677, the “PDGFA tpm_KQ_NTZ” value (replicates 1-3) was 0.404 and 0.3967 and 0.4405 and the “PDZK1 tpm_KQ_NTZ” value (replicates 1-3) was -0.2414 and 0.3327 and -0.5574. The “PEG10 tpm_KQ_NTZ” value (replicates 1-3) was -0.4908 and -0.6617 and -1.075, the “PFKFB1 tpm_KQ_NTZ” value (replicates 1-3) was 0.1063 and -0.5815 and -0.9802 and the “PGAM4 tpm_KQ_NTZ” value (replicates 1-3) was -1.18 and 0.2721 and 0.1017. The “PHACTR3 tpm_KQ_NTZ” value (replicates 1-3) was -0.9821 and -1.045 and -0.9733, the “PHOSPHO2 tpm_KQ_NTZ” value (replicates 1-3) was -0.6941 and -0.4899 and -0.4437 and the “PIANP tpm_KQ_NTZ” value (replicates 1-3) was -0.9238 and -0.4554 and -0.5206. For the same molecule, the “PITPNM3 tpm_KQ_NTZ” value (replicates 1-3) was 0.8488 and 0.3478 and 1.199, the “PKIA tpm_KQ_NTZ” value (replicates 1-3) was -0.2506 and -0.236 and -0.2863 and the “PRKAR1B tpm_KQ_NTZ” value (replicates 1-3) was 0.4324 and 0.4514 and 0.7549. For the same molecule, the “PRKDC tpm_KQ_NTZ” value (replicates 1-3) was 0.0232 and -0.08402 and -0.5624, the “PROS1 tpm_KQ_NTZ” value (replicates 1-3) was 0.5403 and 0.6849 and 0.6327 and the “PRR16 tpm_KQ_NTZ” value (replicates 1-3) was -0.9713 and 0.1931 and -0.1646. For the same molecule, the “PRR29 tpm_KQ_NTZ” value (replicates 1-3) was -0.06306 and -0.3085 and -0.2669, the “PTPRR tpm_KQ_NTZ” value (replicates 1-3) was 0.6595 and 1.295 and 0.9528 and the “RBL1 tpm_KQ_NTZ” value (replicates 1-3) was -0.1965 and -0.4796 and -0.579. For the same molecule, the “RLN1 tpm_KQ_NTZ” value (replicates 1-3) was -0.3286 and -1.073 and -1.143, the “RMDN2 tpm_KQ_NTZ” value (replicates 1-3) was 0.2344 and 0.5874 and -0.2937 and the “RND1 tpm_KQ_NTZ” value (replicates 1-3) was 0.2005 and 0.3255 and 0.6944. The “S100A6 tpm_KQ_NTZ” value (replicates 1-3) was -0.1375 and -0.00541 and 0.1164, the “SCG2 tpm_KQ_NTZ” value (replicates 1-3) was 0.5158 and -0.04635 and -1.114 and the “SDCBP2 tpm_KQ_NTZ” value (replicates 1-3) was 0.1173 and 0.1996 and 0.2731. For the same molecule, the “SERINC5 tpm_KQ_NTZ” value (replicates 1-3) was 0.7977 and 0.7386 and 0.3271, the “SERPINA3 tpm_KQ_NTZ” value (replicates 1-3) was 0.1383 and 0.1648 and 0.1316 and the “SERPINB4 tpm_KQ_NTZ” value (replicates 1-3) was -0.3324 and -0.2205 and -0.9332. The “SERPIND1 tpm_KQ_NTZ” value (replicates 1-3) was -1.101 and -0.7105 and -1.316, the “SGK1 tpm_KQ_NTZ” value (replicates 1-3) was -0.7129 and -0.3809 and -0.4182 and the “SHISA3 tpm_KQ_NTZ” value (replicates 1-3) was -0.1615 and -0.01424 and -0.03964. For the same molecule, the “SLC1A1 tpm_KQ_NTZ” value (replicates 1-3) was 0.007137 and 0.6447 and 0.4297, the “SLC26A9 tpm_KQ_NTZ” value (replicates 1-3) was -0.2744 and 0.2725 and -0.927 and the “SLC41A2 tpm_KQ_NTZ” value (replicates 1-3) was 0.4534 and 0.4303 and 0.4488. The “SLC44A4 tpm_KQ_NTZ” value (replicates 1-3) was 0.5521 and 0.8689 and 0.6934, the “SLC45A2 tpm_KQ_NTZ” value (replicates 1-3) was 0.257 and 0.07385 and 0.3908 and the “SLITRK5 tpm_KQ_NTZ” value (replicates 1-3) was 0.1465 and 0.3195 and -0.4377. For the same molecule, the “SMCO4 tpm_KQ_NTZ” value (replicates 1-3) was 0.1432 and -0.08242 and 0.08549, the “SPOCK2 tpm_KQ_NTZ” value (replicates 1-3) was 0.7174 and 0.4246 and 1.38 and the “STK32A tpm_KQ_NTZ” value (replicates 1-3) was -0.2617 and 0.04669 and 0.4294. For the same molecule, the “SYN3 tpm_KQ_NTZ” value (replicates 1-3) was 0.4729 and 0.3702 and 0.1862, the “TENM4 tpm_KQ_NTZ” value (replicates 1-3) was 0.2992 and -0.3092 and -0.102 and the “TIMM8A tpm_KQ_NTZ” value (replicates 1-3) was -0.8837 and -0.8279 and -0.9653. For the same molecule, the “TJP3 tpm_KQ_NTZ” value (replicates 1-3) was 0.01147 and 0.1369 and 0.1215, the “TMEM140 tpm_KQ_NTZ” value (replicates 1-3) was 0.2484 and 0.4158 and -0.0465 and the “TMEM269 tpm_KQ_NTZ” value (replicates 1-3) was 0.406 and 0.06998 and -0.4941. For the same molecule, the “TMOD1 tpm_KQ_NTZ” value (replicates 1-3) was 1.342 and 1.235 and 0.499, the “TMPRSS2 tpm_KQ_NTZ” value (replicates 1-3) was 0.007165 (2×) and 0.0842 and the “TNFAIP8L2-SCNM1 tpm_KQ_NTZ” value (replicates 1-3) was -0.5467 and -1.562 and 0.4492. For the same molecule, the “TNFRSF11B tpm_KQ_NTZ” value (replicates 1-3) was -0.9649 and -1.078 and -1.224, the “TSPAN18 tpm_KQ_NTZ” value (replicates 1-3) was 0.09114 and -0.09342 and 0.05473 and the “TTC9 tpm_KQ_NTZ” value (replicates 1-3) was 0.2094 and 0.2356 and 0.6409. The “TTC30A tpm_KQ_NTZ” value (replicates 1-3) was -0.04558 and -0.08793 and -0.6072, the “TTC30B tpm_KQ_NTZ” value (replicates 1-3) was -0.2207 and -0.5797 and -0.3178 and the “UST tpm_KQ_NTZ” value (replicates 1-3) was 0.2599 and 0.1194 and -0.01732. The “WHRN tpm_KQ_NTZ” value (replicates 1-3) was 0.9053 and 0.8473 and 0.7758, the “WNT4 tpm_KQ_NTZ” value (replicates 1-3) was 0.9814 and 1.222 and 1.387 and the “WNT9A tpm_KQ_NTZ” value (replicates 1-3) was 0.12 and -0.05504 and -0.01608. For the same molecule, the “ZFPM2 tpm_KQ_NTZ” value (replicates 1-3) was -0.1773 and -0.1147 and -0.2406, the “ZNF596 tpm_KQ_NTZ” value (replicates 1-3) was -1.141 and -0.2632 and -0.6635 and the “tpm ABAT” value (replicates NTZ1-3) was 1.268 and 0.9682 and 0.237. The “tpm ADIRF” value (replicates NTZ1-3) was -0.4477 and -0.5226 and -0.3352, the “tpm ANKRD63” value (replicates NTZ1-3) was 0.1535 and -0.6652 and 0.3857 and the “tpm ANXA8” value (replicates NTZ1-3) was 0.9428 and 0.3454 and -1.083. For the same molecule, the “tpm ANXA8L1” value (replicates NTZ1-3) was -0.298 and -0.4234 and -0.7464, the “tpm ARG2” value (replicates NTZ1-3) was 1.137 and 1.333 and 1.316 and the “tpm ATP2A3” value (replicates NTZ1-3) was 0.8036 (2×) and -0.2131. The “tpm C11orf65” value (replicates NTZ1-3) was -1.057 and -0.2742 and -0.729, the “tpm CACNG8” value (replicates NTZ1-3) was -0.5252 and -0.3048 and -0.9129 and the “tpm CAPN12” value (replicates NTZ1-3) was 0.129 and 0.1138 (2×). The “tpm CD14” value (replicates NTZ1-3) was -1.105 and -0.7008, the “tpm CGB5” value (replicates NTZ1-3) was 0.9167 and 0.2487 and 0.1354 and the “tpm CHPF2” value (replicates NTZ1-3) was 1.06 and 0.6508 and 0.6663. The “tpm COL4A4” value (replicates NTZ1-3) was 0.03123 and -0.5371 and -0.2214, the “tpm COL4A6” value (replicates NTZ1-3) was -0.1711 and -0.6593 and -0.6324 and the “tpm CXCL5” value (replicates NTZ1-3) was -0.4877 and -0.4195 and -0.4771. The “tpm CYP1B1” value (replicates NTZ1-3) was 0.6593 and 0.4159 and 0.0748 and the “tpm CYP2E1” value (replicates NTZ1-3) was 0.3931 and 0.8042 and 0.2474.
